Test results taken from patent US20250186450A1, “COMBINATION THERAPY COMPRISING DGK INHIBITORS and PD-1/PD-L1 INHIBITORS” (Incyte Corporation, priority 2023, published 2025).
Entries after “also recorded” stand apart in the source; their conditions may differ.

Experiments:
[1] = tested on: MC38 syngeneic tumor model; test: MC38 syngeneic tumor model, DGK inhibitor plus anti-PD-1 (RMP1-14); format: in vivo, C57Bl/6 mice
Protocol: The in vivo effect of combining Compound 1 plus anti-PD-1 (RMP1-14, Bio X Cell) was assessed in the MC38 (CRL-1642, ATCC, Manassas, VA) syngeneic tumor model (see FIG. 3) in 6 to 8 weeks old C57Bl/6 mice (Jackson laboratories). Compound 1 was suspended in 5% N,N-dimethylacetamide (DMAC)+50 mM Citrate buffer in 0.5% methyl cellulose for oral administration and RMP1-14 was suspended in saline for intraperitoneal administration. Briefly, the left flank of the mice was shaved the day prior to subcutaneous inoculation with 2×10^6 MC38 cells suspended in PBS. On day 7, tumor dimensions were measured by Vernier calipers, and volume estimated by the formula Volume=[L (long dimension)×W^2 (short dimension)]/2. Mice were randomized into 6 groups of 10 mice of approximate mean volume (˜160 mm^3). Tumors were measured 3 times per week for the duration of the study. Starting day 7, mice were dosed with (i) vehicle; (ii) 250 μg/mouse of RMP1-14; (iii) 10 mg/kg of Compound 1; (iv) 1 mg/kg of Compound 1; (v) 10 mg/kg of Compound 1 and 250 μg/mouse of RMP1-14; or (vi) 1 mg/kg of Compound 1 and 250 μg/mouse of RMP1-14. Compound 1 was administered orally once daily (QD) for 12 days, while RMP1-14 was dosed every 5 days (for a total of 3 doses).
The in vivo effect of combining Compound 2 plus anti-PD-1 (RMP1-14, Bio X Cell) was assessed in the MC38 (CRL-1642, ATCC, Manassas, VA) syngeneic tumor model in 6 to 8 weeks old C57Bl/6 mice (Jackson laboratories). Compound 2 was suspended in 5% N,N-dimethylacetamide (DMAC)+50 mM Citrate buffer in 0.5% methyl cellulose for oral administration and RMP1-14 was suspended in saline for intraperitoneal administration. Briefly, the left flank of the mice was shaved the day prior to subcutaneous inoculation with 2×10^6 MC38 cells suspended in PBS. On day 7, tumor dimensions were measured by Vernier calipers, and volume estimated by the formula Volume=[L (long dimension)×W^2 (short dimension)]/2. Mice were randomized into 6 groups of 10 mice of approximate mean volume (˜130 mm^3). Tumors were measured 3 times per week for the duration of the study. Starting day 7, mice were dosed with (i) vehicle; (ii) 250 μg/mouse of RMP1-14 (Anti-PD-1); (iii) 0.5 mg/kg of Compound 2 QD; (iv) 0.5 mg/kg of Compound 2 […] and 250 μg/mouse of RMP1-14; (v) 0.5 mg/kg of Compound 2 Q2D; (vi) 0.5 mg/kg of Compound 2 […] and 250 μg/mouse of RMP1-14; (vii) 1.5 mg/kg of Compound 2 QD; (viii) 1.5 mg/kg of Compound 2 QD and 250 μg/mouse of RMP1-14 (ix) 1.5 mg/kg of Compound 2 Q2D; (x) 1.5 mg/kg of Compound 2 Q2D and 250 μg/mouse of RMP1-14; (xi) 1.5 mg/kg of Compound 2 Q3D; or (xii) 1.5 mg/kg of Compound 2 Q3D and 250 μg/mouse of RMP1-14.
The in vivo effect of combining 2-(4-((2S,5R)-4-(bis(4-fluorophenyl)methyl)-2,5-dimethylpiperazin-1-yl)-1H-[1,2,4]triazolo[3,4-b]purin-1-yl)-N,N-dimethylethane-1-amine (i.e., Compound 3) plus anti-PD-1 (RMP1-14, Bio X Cell) was assessed in the MC38 (CRL-1642, ATCC, Manassas, VA) syngeneic tumor model in 6 to 8 weeks old C57Bl/6 mice (Jackson laboratories). Compound 3 was suspended in 5% N,N-dimethylacetamide (DMAC)+50 mM Citrate buffer in 0.5% methyl cellulose for oral administration and RMP1-14 was suspended in saline for intraperitoneal administration. Briefly, the left flank of the mice was shaved the day prior to subcutaneous inoculation with 2×10^6 MC38 cells suspended in PBS. On day 7, tumor dimensions were measured by Vernier calipers, and volume estimated by the formula Volume=[L (long dimension)×W^2 (short dimension)]/2. Mice were randomized into 6 groups of 10 mice of approximate mean volume (˜200 mm^3). Tumors were measured 3 times per week for the duration of the study. Starting day 7, mice were dosed with (i) vehicle; (ii) 250 μg/mouse of RMP1-14 (Anti-PD-1); (iii) 10 mg/kg of Compound 3 QD; (iv) 10 mg/kg of Compound 3 QD and 250 μg/mouse of RMP1-14; (v) 30 mg/kg of Compound 3 QD; or (vi) 30 mg/kg of Compound 3 QD and 250 μg/mouse of RMP1-14.

[2] = tested on: human CD3+ T cells co-cultured with allogenic dendritic cells; test: Allogenic mixed lymphocyte reaction assay, IFNγ by HTRF; format: cell-based
Protocol: To assess the ability of 4-((2S,5R)-4-((3,3-difluorocyclobutyl)(4-(trifluoromethyl)phenyl)methyl)-2,5-dimethylpiperazin-1-yl)-2-methyl-1-(((S)-tetrahydrofuran-2-yl)methyl)-1H-[1,2,4]triazolo[3,4-b]purine (i.e., Compound 2) to further enhance the T cell effector function induced by checkpoint blockade, the combination effect of Compound 2 and anti-PD-1 reagent (retifanlimab and pembrolizumab) was evaluated in an allogenic mixed lymphocyte reaction assay.
In brief, Human PBMCs were isolated from leukopaks (BioIVT) obtained from healthy donors by the Ficoll-Paque (Cytiva 17144002) cell separation method. Monocyte isolation was performed using the Dynabeads Untouched human monocyte kit (Life Technologies 11350D), and monocytes were cultured in 10% FBS RPMI 1640 treated with 100 ng/mL granulocyte-macrophage colony-stimulating factor (R&D Systems 215-GM/CF) and 50 ng/mL IL-4 (R&D Systems 204-IL/CF) for at least 6 days at 37° C. with 5% CO2 to differentiate into dendritic cells. Pan T cells were isolated using the Dynabeads Untouched human T-cell kit (Life Technologies 11344D) and plated at 1×10^5 cells/well in 100 μL of 10% FBS RPMI 1640 in 96-well, round-bottom plates (Costar 3879). […] After 20 hours of incubation at room temperature, the HTRF signal was measured by the PHERAstar FSX microplate reader (BMG Labtech). […]

SMILES | TGI, combined with anti-PD-1 mAb, vs anti-PD-1 mAb control group ([1]; 1.5 mg/kg Compound 2 and 250 μg/mouse RMP1-14, FIG. 7) | TGI, combined with anti-PD-1 mAb, vs vehicle control group ([1]; 0.5 and 1.5 mg/kg Compound 2, independent of dose schedule, and 250 μg/mouse RMP1-14, FIG. 7) | TGI, combination groups vs respective single-arm Compound 2 control group ([1]; 0.5 or 1.5 mg/kg Compound 2 and 250 μg/mouse RMP1-14) | TGI vs vehicle and anti-PD-1 mAb control groups ([1]; Compound 2 alone, 0.5 or 1.5 mg/kg, FIG. 7) | production of IFNγ, combination vs single agents ([2]; 4 nM Compound 2 plus 0.7 nM pembrolizumab vs anti-PD-1 mAb or Compound 2 single agent, FIG. 5B) | production of IFNγ, combination vs single agents ([2]; 4 nM Compound 2 plus 0.7 nM retifanlimab vs anti-PD-1 mAb or Compound 2 single agent, FIG. 5A) | combination effect on tumor growth delay (Bliss Independence analysis) ([1]; 10 mg/kg or 1 mg/kg Compound 1 QD for 12 days with 250 μg RMP1-14, vs respective controls, FIG. 3)
Cc1nc2c(N3C[C@@H](C)N(C(c4ccc(C(F)(F)F)cc4)C4CC(F)(F)C4)C[C@@H]3C)nc3nncn3c2n1C[C@@H]1CCCO1 (single isomer, unassigned) [Example 2] | significant TGI | statistically significant; also recorded: significant TGI | statistically significant | None of the single treatment arm groups dosed with Compound 2 0.5 or 1.5 mg/kg provided statistically significant TGI | statistically significant higher production of IFNγ | statistically significant higher production of IFNγ | –
C[C@@H]1CN(c2nc3nncn3c3c2nnn3C[C@H]2CCCO2)[C@@H](C)CN1C(c1ccc(F)cc1)c1ccc(F)cc1 [Example 1, 4-((2S,5R)-4-(Bis(4-fluorophenyl)methyl)-2,5-dimethylpiperazin-1-yl)-1-(((R)-tetrahydrofuran-2-yl)methyl)-1H-[1,2,3]triazolo[4,5-e][1,2,4]triazolo[4,3-a]pyrimidine] | – | – | – | – | – | – | additive effect in tumor growth delay
